This note sets out measurements from patent publication US6982353B2, “C2-disubstituted indan-1-ol compounds, their derivatives, processes for their preparation, and their use as pharmaceuticals” (Aventis Pharma Deutschland GmbH, priority 2001, dated 2006).

The test system of one series is female NMRI mice. Nature of the series: Anorectic action: cumulative evaporated milk consumption after 24 h removal of feed. The conditions noted are these: dose 20 mg/kg (ip or po, route not specified). The format is in vivo. The procedure:
The anorectic action was tested on female NMRI mice. After removal of feed for 24 hours, the preparation to be tested was administered intraperitoneally (ip) or by gavage (po). The animals were housed singly and, with free access to drinking water, they were offered evaporated milk 30 minutes after administration of the preparation. The consumption of evaporated milk was determined and the general behavior of the animals was monitored every half an hour for 7 hours. The measured milk consumption was compared to that of vehicle-treated control animals.

`CS(=O)(=O)C1(F)Cc2cc(Cl)ccc2C1O` (stereo not drawn) [Example 1, 5-Chloro-2-fluoro-2-methanesulfonylindan-1-ol] gave a melting point of 101 °C. Further, the “Reduction in cumulative milk consumption as % of the control” value with female NMRI mice (compared with untreated control animals) is 46%. In addition, the “cumulative milk consumption by treated animals” value with female NMRI mice (feed removed 24 h, milk offered 30 min after administration, monitored for 7 hours) is recorded as 5/2.06 ml.

The melting point is the temperature of the solid-liquid transition.
